Patent US5854216A, “Marker for growth hormone-releasing factor receptors” (Universite de Montreal, priority 1996, dated 1998)
Each block holds one molecule with its values, some of them ahead of it. Square brackets hold non-standard residues; d marks the D form. Ends that are not written are not given here. Peptide text beside a SMILES is read from it. Phe(4-NO2) = N[C@@H](Cc1ccc([N+](=O)[O-])cc1)C(=O)O

What was measured:
[1] = biological target: T1, GRF receptors ([^125 I-Tyr^10 ]hGRF(1-44)NH2 binding sites in rat adenopituitary) (Rattus norvegicus, UniProt Q02644); assay: Competitive binding assay with [^125 I-Tyr^10 ]hGRF(1-44)NH2 on anterior pituitary homogenates; conditions: for Relative affinity: ratio IC50 of hGRF(1-29)NH2 /IC50 analogue; for biological activity compared to that of native GRF: rat adenopituitary
T1 construct: from tissue; host or cells: rat anterior pituitary homogenate
T1 sequence (Q02644 23-423 isoform Q02644-2 limits assumed): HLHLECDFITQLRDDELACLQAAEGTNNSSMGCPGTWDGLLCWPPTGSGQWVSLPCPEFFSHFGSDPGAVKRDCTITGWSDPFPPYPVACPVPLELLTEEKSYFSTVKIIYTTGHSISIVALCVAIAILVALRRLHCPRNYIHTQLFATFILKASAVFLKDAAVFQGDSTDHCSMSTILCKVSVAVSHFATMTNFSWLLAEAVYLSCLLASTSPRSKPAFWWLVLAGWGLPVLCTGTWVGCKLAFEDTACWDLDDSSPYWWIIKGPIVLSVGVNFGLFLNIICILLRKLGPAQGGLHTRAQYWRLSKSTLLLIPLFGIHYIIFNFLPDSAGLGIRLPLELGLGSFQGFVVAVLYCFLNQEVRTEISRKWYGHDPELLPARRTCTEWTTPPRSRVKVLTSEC
Procedure: The binding of [^125 I-Tyr^10 ]hGRF(1-44)NH2 was performed on anterior pituitary homogenates as previously described (Gaudreau P. et al., J. Biol. Chem., 1992, 35:1864-1869). Briefly, anterior pituitaries (pit.) were dissected out, rinsed and homogenized for 8 sec with a Micro Ultrasonic Cell Disrupter™, in ice-cold 50 mM Tris-HCl buffer, pH 7.4, containing 5 mM MgCl2 and 5 mM EDTA (1 pit./0.5 ml). These homogenates were used immediately. Competition studies were performed using 35-50 pM [^125 I-Tyr^10 ]hGRF(1-44)NH2 as radio-ligand,50 μl of homogenate (70 to 75 μg of protein), and increasing concentrations of Nε-CF-[Lys^31 ]hGRF or other GRF analogues (0-1000 nM) or with 2.4 μM rGRF(1-29)NH2 for determination of non-specific binding, in a total volume of 300 μl of Tris-HCl buffer, pH 7.4, containing 5 mM EDTA, 5 mM MgCl2 and 0.42% BSA. Incubations were carried out at 23° C. for 60 min and stopped by centrifugation (12,000 g, 5 min, at 4° C.). The radioactivity content in the pellet was measured by gamma counting. The affinity of hGRF(1-29)NH2 was tested in each experiment to assess the validity of the assay and determine the relative affinity of the analogues. […] The Hill values indicate that all these peptides bind to the high and low affinity GRF binding sites found in the anterior pituitary.

[2] = biological target: T2, GRF receptor (adenylate cyclase activity in rat adenopituitary) (Rattus norvegicus, UniProt Q02644); assay: Adenylate cyclase assay on anterior pituitary homogenates (cAMP by HPLC); assay type: biochemical; conditions: Table 12; for IC50: 50% of maximal cAMP accumulation induced by 1 μM hGRF(1-29)NH2, mean±SD of 2 or mean±SE of 3 to 6 experiments, 10 for hGRF(1-29)NH2
T2 construct: from tissue; host or cells: rat anterior pituitary homogenate
T2 sequence (Q02644 23-423 isoform Q02644-2 limits assumed): T1 sequence (Q02644 23-423 isoform Q02644-2 limits assumed)
Procedure: The adenylate cyclase activity Nε-CF-[Lys^31 ]hGRF was performed on anterior pituitary homogenates as previously described (Lefrangois L. and Gaudreau P., J. Chromatogr., 1993, 619:116-120). Briefly, anterior pituitaries (pit.) were dissected out, rinsed and homogenized for 8 sec with a Micro Ultrasonic Cell Disrupter™, in ice-cold 20 mM Tris-HCl buffer (pH 7.5) containing 2 mM MgCl2 and 250 mM sucrose (1 pit./0.5 ml).
Samples of anterior pituitary homogenates (30-40 μg protein) were incubated in 1.5 ml Eppendorf™ tubes with 30 mM Tris-HCl, 5 mM MgCl2, 0.5 mM EGTA, containing 0.5 mM ATP, 1 mM IBMX, 10 μM GTP and an ATP regenerating system consisting of 2 mM creatine phosphate, 0.1 mg/ml creatine kinase and, 0.1 mg/ml myokinase in a final volume of 120 μl. Incubations were initiated by adding 20 μl of the homogenate to the reaction mixture which had previously been equilibrated at 37° C. for 2 min. The reactions were carried out for 8 min at 37° C. and stopped by heating the samples in boiling water for 4 min. Samples were centrifuged (12000 g, 5 min, 4° C.) and supernatants were filtered through 0.45 μm Millex HV4 ™ filters and transferred to autosampler vials for HPLC quantification of cAMP.

[3] = Table 11, mean±SD of 2 or mean±SE of 3 experiments for analogues, mean±SE of 11 for hGRF(1-29)NH2

Molecule: YADAIFTAAYRKVLAQLSARKALQDIMSR-NH2 [Ala^8, Ala^9, Ala^15, Ala^22]
- IC50 [1, 3]: 0.31 ± 0.14 nM
- IC50 [2]: 2.88 ± 1.01 nM

Molecule: YADAIFTNSYRKVLGQLSARKKLQDIMSR-NH2 [Lys^22]
- Hill coef. ([1]; Table 11): 0.62 ± 0.06
- IC50 [1, 3]: 0.23 ± 0.04 nM
- Relative affinity ([1]; Table 11): 1043 ± 181%
- biological activity compared to that of native GRF [1]: preserved or increased
- IC50 [2]: 2.63 ± 0.64 nM
- Relative activity ([2]; ratio EC50 of hGRF(1-29)NH2 /EC50 analogue): 1395 ± 339%

Molecule: CC[C@H](C)[C@H](NC(=O)[C@H](C)NC(=O)[C@H](CC(=O)O)NC(=O)[C@H](C)NC(=O)[C@@H](N)Cc1ccc(O)cc1)C(=O)N[C@@H](Cc1ccccc1)C(=O)N[C@H](C(=O)N[C@@H](CC(N)=O)C(=O)N[C@@H](Cc1ccc([N+](=O)[O-])cc1)C(=O)N[C@@H](Cc1ccc(O)cc1)C(=O)N[C@@H](CCCNC(=N)N)C(=O)N[C@@H](CCCCN)C(=O)N[C@H](C(=O)N[C@@H](CC(C)C)C(=O)NCC(=O)N[C@@H](CCC(N)=O)C(=O)N[C@@H](CC(C)C)C(=O)N[C@@H](CO)C(=O)N[C@@H](C)C(=O)N[C@@H](CCCNC(=N)N)C(=O)N[C@@H](CCCCN)C(=O)N[C@@H](CC(C)C)C(=O)N[C@@H](CC(C)C)C(=O)N[C@@H](CCC(N)=O)C(=O)N[C@@H](CC(=O)O)C(=O)N[C@H](C(=O)N[C@@H](CCSC)C(=O)N[C@@H](CO)C(=O)N[C@@H](CCCNC(=N)N)C(N)=O)[C@@H](C)CC)C(C)C)[C@@H](C)O [npa^9, [4'-nitro-phenylanalylalanine^9]hGRF(1-29)NH2] (H-YADAIFTN[Phe(4-NO2)]YRKVLGQLSARKLLQDIMSR-NH2)
- IC50 (in words) [1]: low nanomolar range

Molecule: CC[C@H](C)[C@H](NC(=O)[C@H](C)NC(=O)[C@H](CC(=O)O)NC(=O)[C@H](C)NC(=O)[C@H](Cc1ccc(O)cc1)NC(=S)Nc1ccc2c(c1)C(=O)OC21c2ccc(O)cc2Oc2cc(O)ccc21)C(=O)N[C@@H](Cc1ccccc1)C(=O)N[C@H](C(=O)N[C@@H](CC(N)=O)C(=O)N[C@@H](CO)C(=O)N[C@@H](Cc1ccc(O)cc1)C(=O)N[C@@H](CCCNC(=N)N)C(=O)N[C@@H](CCCCN)C(=O)N[C@H](C(=O)N[C@@H](CC(C)C)C(=O)NCC(=O)N[C@@H](CCC(N)=O)C(=O)N[C@@H](CC(C)C)C(=O)N[C@@H](CO)C(=O)N[C@@H](C)C(=O)N[C@@H](CCCNC(=N)N)C(=O)N[C@@H](CCCCN)C(=O)N[C@@H](CC(C)C)C(=O)N[C@@H](CC(C)C)C(=O)N[C@@H](CCC(N)=O)C(=O)N[C@@H](CC(=O)O)C(=O)N[C@H](C(=O)N[C@@H](CCSC)C(=O)N[C@@H](CO)C(=O)N[C@@H](CCCNC(=N)N)C(=O)N[C@@H](CCC(N)=O)C(=O)N[C@@H](CCC(N)=O)C(=O)NCC(=O)N[C@@H](CCC(=O)O)C(=O)N[C@@H](CO)C(=O)N[C@@H](CC(N)=O)C(=O)N[C@@H](CCC(N)=O)C(=O)N[C@@H](CCC(=O)O)C(=O)N[C@@H](CCCNC(=N)N)C(=O)NCC(=O)N[C@@H](C)C(=O)N[C@@H](CCCNC(=N)N)C(=O)N[C@@H](C)C(=O)N[C@@H](CCCNC(=N)N)C(=O)N[C@@H](CC(C)C)C(N)=O)[C@@H](C)CC)C(C)C)[C@@H](C)O [[Nα-fluorescein-5-thiocarbamyl]hGRF(1-44)NH2]
- affinity for adenopituitary GRF receptors (in words) [1]: nanomolar affinity
- Hill coef. ([1]; Table 4): 0.63 ± 0.07
- IC50 ([1]; Table 4, mean±SD of 2 experiments in triplicate for analogues, mean±SE of 29 experiments for hGRF(1-29)NH2): 14 ± 4 nM
- Relative affinity ([1]; Table 4): 19 ± 5%

Molecule: CC[C@H](C)[C@H](NC(=O)[C@H](C)NC(=O)[C@H](CC(=O)O)NC(=O)[C@@H](C)NC(=O)[C@@H](N)Cc1ccc(O)cc1)C(=O)N[C@@H](Cc1ccccc1)C(=O)N[C@H](C(=O)N[C@@H](CC(N)=O)C(=O)N[C@@H](CO)C(=O)N[C@H](Cc1ccc(O)cc1)C(=O)N[C@@H](CCCNC(=N)N)C(=O)N[C@@H](CCCCN)C(=O)N[C@H](C(=O)N[C@@H](CC(C)C)C(=O)NCC(=O)N[C@@H](CCC(N)=O)C(=O)N[C@@H](CC(C)C)C(=O)N[C@@H](CO)C(=O)N[C@@H](C)C(=O)N[C@@H](CCCNC(=N)N)C(=O)N[C@H](CCCCN)C(=O)N[C@@H](CC(C)C)C(=O)N[C@@H](CC(C)C)C(=O)N[C@@H](CCC(N)=O)C(=O)N[C@@H](CC(=O)O)C(=O)N[C@H](C(=O)N[C@@H](CCSC)C(=O)N[C@@H](CO)C(=O)N[C@@H](CCCNC(=N)N)C(N)=O)[C@@H](C)CC)C(C)C)[C@@H](C)O [D-Ala^2, D-Tyr^10, D-Lys^21]
- Hill coef. ([1]; Table 11): 0.64 ± 0.05
- Relative affinity ([1]; Table 11): 21 ± 11%
- biological activity compared to that of native GRF [1]: preserved or increased

Second part, the molecule after the results:

- Hill coef. ([1]; Table 11): 0.41 ± 0.02
- Relative affinity ([1]; Table 11): 25 ± 3%
- biological activity compared to that of native GRF [1]: preserved or increased
Molecule: CC[C@H](C)[C@H](NC(=O)[C@H](C)NC(=O)[C@H](CC(=O)O)NC(=O)[C@@H](C)NC(=O)[C@@H](N)Cc1ccc(O)cc1)C(=O)N[C@@H](Cc1ccccc1)C(=O)N[C@H](C(=O)N[C@@H](CC(N)=O)C(=O)N[C@@H](CO)C(=O)N[C@H](Cc1ccc(O)cc1)C(=O)N[C@@H](CCCNC(=N)N)C(=O)N[C@@H](CCCCN)C(=O)N[C@H](C(=O)N[C@@H](CC(C)C)C(=O)NCC(=O)N[C@@H](CCC(N)=O)C(=O)N[C@@H](CC(C)C)C(=O)N[C@@H](CO)C(=O)N[C@@H](C)C(=O)N[C@@H](CCCNC(=N)N)C(=O)N[C@@H](CCCCN)C(=O)N[C@@H](CC(C)C)C(=O)N[C@@H](CC(C)C)C(=O)N[C@@H](CCC(N)=O)C(=O)N[C@@H](CC(=O)O)C(=O)N[C@H](C(=O)N[C@@H](CCSC)C(=O)N[C@@H](CO)C(=O)N[C@@H](CCCNC(=N)N)C(N)=O)[C@@H](C)CC)C(C)C)[C@@H](C)O [D-Ala^2, D-Tyr^10]

- Hill coef. ([1]; Table 7): 0.63 ± 0.09
- IC50 ([1]; Table 7, mean±SD of 2 or mean±SE of 3-6 experiments for analogues, mean±SE of 29 for hGRF(1-29)NH2): 18.3 ± 5.9 nM
- Relative affinity ([1]; Table 7): 14 ± 5%
Molecule: CC[C@H](C)[C@H](NC(=O)[C@H](C)NC(=O)[C@H](CC(=O)O)NC(=O)[C@H](C)NC(=O)[C@H](Cc1ccc(O)cc1)NC(=O)[C@@H](N)Cc1ccc([N+](=O)[O-])cc1)C(=O)N[C@@H](Cc1ccccc1)C(=O)N[C@H](C(=O)N[C@@H](CC(N)=O)C(=O)N[C@@H](CO)C(=O)N[C@@H](Cc1ccc(O)cc1)C(=O)N[C@@H](CCCNC(=N)N)C(=O)N[C@@H](CCCCN)C(=O)N[C@H](C(=O)N[C@@H](CC(C)C)C(=O)NCC(=O)N[C@@H](CCC(N)=O)C(=O)N[C@@H](CC(C)C)C(=O)N[C@@H](CO)C(=O)N[C@@H](C)C(=O)N[C@@H](CCCNC(=N)N)C(=O)N[C@@H](CCCCN)C(=O)N[C@@H](CC(C)C)C(=O)N[C@@H](CC(C)C)C(=O)N[C@@H](CCC(N)=O)C(=O)N[C@@H](CC(=O)O)C(=O)N[C@H](C(=O)N[C@@H](CCSC)C(=O)N[C@@H](CO)C(=O)N[C@@H](CCCNC(=N)N)C(N)=O)[C@@H](C)CC)C(C)C)[C@@H](C)O [npa0]
